Measured values: patent US20210244686A1, “Novel Systems And Methods For The Therapeutic Use of Cannabinoids or Cannabinoid Analogs to Increase The Lipid Order of Cholesterol Containing Cell Membranes” (The Regents of the University of Colorado a body corporate, priority 2018, published 2021)

Assays:
Format in all cases: cell-based, human
SREBP2 = experiment: Western blot analysis of SREBP2 proteolytic processing; conditions: 24 hr
Text: To further investigate the role of SREBP/SCAP signaling in the CBD response, the present inventors used western blot analysis to probe whether SREBP2 proteolytic processing is affected by CBD. […] The present inventors performed this assay with cells grown in LDL containing FBS (elevated cholesterol) and LDL depleted FBS (cholesterol starved). […] However, the inventors also detect evidence that although cholesterol precursors are accumulating in a CBD dependent manner, cholesterol itself appears to experience a net decrease in de novo synthesis. This is evident in the overall decrease in newly synthesized ^13C labeled cholesterol in CBD treated cells (FIG. 3B) and implies an apparent blockage in the final step of cholesterol biosynthesis, which is catalyzed by either DHCR24 or DHCR7 in the ER.
Cells were harvested at 24 hours by trypsinization and counted using a hemocytometer to determine cell concentration. 4×10^6 cells from each sample were lysed using 200 μL SDS lysis buffer (20 mM Tris pH 6.8, 4% SDS, 0.5% beta mercaptoethanol) and lysates were boiled for 5 minutes 95° C. and subsequently sonicated at 40% power 10 cycles 10 seconds on/off. 10 μL of lysate was loaded into each lane of a 12% SDS PAGE gel. Immunoblotting of protein transferred to nitrocellulose membrane was performed using anti-SREBP2 (Cayman Chemical #10007663).

SK-N-BE(2) cells [1] = experiment: Live cell confocal microscopy of NBD-cholesterol and lysotracker; conditions: after 24 hours, only with NPC1 inhibitor U18666A and CBD 20 μM
Text: One possible explanation for why CBD sensitizes cells to inhibitors of cholesterol trafficking and storage is that CBD increases the flux of cholesterol from the plasma membrane to the lysosome-ER transport pathway. When this flux is activated and hydroxy cholesterol is supplied in excess, the inability to efficiently store cholesterol may cause subcellular accumulation of cholesterol/hydroxycholesterol in organelles that normally maintain low cholesterol levels. To test this hypothesis, the inventor's repeated the live cell confocal microscopy experiments with SK-N-BE(2) cells stained with fluorescent cholesterol (NBD-cholesterol) and the lysosome dye lysotracker.
SK-N-BE(2) cells were seeded into fibronectin coated glass bottom 96 well plates (Matriplate) at a cell density of 40,000 cells/well using low background imaging media (FluoroBrite DMEM with all supplements described, above). At the time of seeding, nile red (ThermoFisher) was added at a final concentration of 100 ng/mL and NBD-cholesterol (ThermoFisher) was added at a final concentration of 10 μg/mL. […] Lipid droplets and their sizes were detected and quantified using the ImageJ Find Particles Function, and data was subsequently processed using Microsoft Excel. Error depicted represents the standard deviation calculated from three biological replicates. […]

SK-N-BE(2) cells [2] = experiment: Subcellular fractionation and LC-MS of CBD distribution; conditions: 24 hrs
Description: In a metabolomics survey of SK-N-BE(2) cells exposed to CBD, the present inventors were able to determine that CBD is concentrated in insoluble components […]. As a result, the inventors designed and executed a subcellular fractionation method to isolate nuclear membrane, plasma membrane, and ER membrane fractions.
Extraction of cholesterol, precursors, free fatty acids, cholesteryl esters, and phospho lipids were performed in the following manner. SK-N-BE(2) cells in 10 cm dishes were washed with 10 mL PBS twice and then cells were scraped and pelleted at 400 rcf for 2 minutes. […]
Analytes were resolved over an ACQUITY HSS T3 column (2.1×150 mm, 1.8 μm particle size (Waters, Mass., USA) using an aqueous phase (A) of 25% acetonitrile and 5 mM ammonium acetate and a mobile phase (B) of 90% isopropanol, 10% acetonitrile and 5 mM ammonium acetate. The column was equilibrated at 30% B, and upon injection of […] of extract, samples were eluted from the column using the solvent gradient: 0-9 min 30-100% B and 0.325 mL/min; hold at 100% B for 3 min at 0.3 mL/min, and then decrease to 30% over 0.5 min at 0.4 ml/min, followed by a re-equilibration hold at 30% B for 2.5 minutes at 0.4 ml/min. […] Samples were analyzed in randomized order with a technical mixture injected incrementally to qualify instrument performance. […]

C=C(C)[C@@H]1CCC(C)=C[C@H]1c1c(O)cc(CCCCC)cc1O [CBD, cannabidiol]
magnitude of SREBP2 cleavage activation versus U18666A or Atorvastatin (SREBP2; U18666A 10 μM, Atorvastatin 10 μM): lower in magnitude | SREBP2 cleavage (SREBP2; both cholesterol starved and elevated cholesterol conditions): dose dependent activation | fluorescent cholesterol in lysosomes (SK-N-BE(2) cells [1]): accumulates in labeled lysosomes | CBD incorporated into ER and nuclear membranes (SK-N-BE(2) cells [2]): detectable amount
